# Results published in patent US8119795B2, “Triazole derivatives II” (Merck Patent GmbH, priority 2006, dated 2012).
# Target: T1, Recombinant human HSP90α (Homo sapiens, UniProt P07900)
# T1 construct: host or cells: E. coli
# Assay: HSP90 radioligand filter binding test ([3H]17AAG competition)
# Conditions: [3H]17AAG 0.08 μM, HSP90 1.5 μg/assay, 22° C., 30 min; read-out: IC50* (HSP90 inhibition)
# Description: Test Method for the Measurement of HSP90 Inhibitors
# In the specific case, a radioligand filter binding test is used. The radioligand used here is tritium-labelled 17-allylaminogeldanamycin, [3H]17AAG. This filter binding test allows a targeted search for inhibitors which interfere with the ATP binding site.
# Recombinant human HSP90α (E. coli expressed, 95% purity);
# HEPES filter buffer (50 mM HEPES, pH 7.0, 5 mM MgCl2, BSA 0.01%)
# Multiscreen F B (1 μm) filter plate (Millipore, MAFBNOB 50).
# The 96-well microtitre filter plates are firstly irrigated and coated with 0.1% of polyethylenimine.
# The test is carried out under the following conditions:
# Reaction temperature 22° C.
# Reaction time: 30 min., shaking at 800 rpm
# 50 mM HEPES HCl, pH 7.0, 5 mM MgCl2, 0.01% (w/v) BSA
# At the end of the reaction, the supernatant in the filter plate is removed by suction with the aid of a vacuum manifold (Multiscreen Separation System, Millipore), and the filter is washed twice.
# The filter plates are then measured in a beta counter (Microbeta, Wallac) with scintillator (Microscint 20, Packard).
# “% of control” is determined from the “counts per minutes” values and the IC50 value of a compound is calculated therefrom.
row,SMILES,IC50 [nM]
1,"COc1cccc(CN(C)C(=O)c2cc(-c3nnc(O)n3-c3ccccc3C)c(O)cc2O)c1 [Compound A6a, 5-{2,4-Dihydroxy-5-[N-(3-methoxybenzyl)-N-methylaminocarbonyl]phenyl}-4-(2-methylphenyl)-3-hydroxy-4H-1,2,4-triazole]",10 to 1000
2,"Cc1ccccc1-n1c(O)nnc1-c1cc(C(=O)N(C)Cc2ccccc2F)c(O)cc1O [Compound A9, 5-{2,4-Dihydroxy-5-[N-(2-fluorobenzyl)-N-methylaminocarbonyl]phenyl}-4-(2-methylphenyl)-3-hydroxy-4H-1,2,4-triazole]",10 to 1000
3,"Cc1ccccc1-n1c(O)nnc1-c1cc(C(=O)N(C)Cc2ccc(F)cc2)c(O)cc1O [Compound A12, 5-{2,4-Dihydroxy-5-[N-(4-fluorobenzyl)-N-methylaminocarbonyl]phenyl}-4-(2-methylphenyl)-3-hydroxy-4H-1,2,4-triazole]",10 to 1000
4,"Cc1ccccc1-n1c(O)nnc1-c1cc(C(=O)N(C)Cc2cccc(F)c2)c(O)cc1O [Compound A15, 5-{2,4-Dihydroxy-5-[N-(3-fluorobenzyl)-N-methylaminocarbonyl]phenyl}-4-(2-methylphenyl)-3-hydroxy-4H-1,2,4-triazole]",10 to 1000
5,"Cc1ccccc1-n1c(O)nnc1-c1cc(C(=O)N(C)Cc2cccc(Cl)c2)c(O)cc1O [Compound A24, 5-{2,4-Dihydroxy-5-[N-(3-chlorobenzyl)-N-methylaminocarbonyl]phenyl}-4-(2-methylphenyl)-3-hydroxy-4H-1,2,4-triazole]",10 to 1000
6,"Cc1ccccc1-n1c(O)nnc1-c1cc(C(=O)N(C)Cc2ccccc2Cl)c(O)cc1O [Compound A27, 5-{2,4-Dihydroxy-5-[N-(2-chlorobenzyl)-N-methylaminocarbonyl]phenyl}-4-(2-methylphenyl)-3-hydroxy-4H-1,2,4-triazole]",10 to 1000
7,"COc1ccc(Cl)cc1CN(C)C(=O)c1cc(-c2nnc(O)n2-c2ccccc2C)c(O)cc1O [Compound A51, 5-{2,4-Dihydroxy-5-[N-(3-chloro-6-methoxybenzyl)-N-methylaminocarbonyl]phenyl}-4-(2-methylphenyl)-3-hydroxy-4H-1,2,4-triazole]",10 to 1000
8,"Cc1ccccc1-n1c(O)nnc1-c1cc(C(=O)N(C)Cc2ccco2)c(O)cc1O [Compound A57, 5-{2,4-Dihydroxy-5-[N-(furan-2-ylmethyl)-N-methylaminocarbonyl]phenyl}-4-(2-methylphenyl)-3-hydroxy-4H-1,2,4-triazole]",10 to 1000
9,"CN(Cc1ccco1)C(=O)c1cc(-c2nnc(O)n2-c2ccccc2)c(O)cc1O [Compound A57a, 5-{2,4-Dihydroxy-5-[N-(furan-2-ylmethyl)-N-methylaminocarbonyl]phenyl}-4-phenyl-3-hydroxy-4H-1,2,4-triazole]",10 to 1000
10,"Cc1cccc(-n2c(O)nnc2-c2cc(C(=O)N(C)Cc3ccco3)c(O)cc2O)c1 [Compound A57b, 5-{2,4-Dihydroxy-5-[N-(furan-2-ylmethyl)-N-methylaminocarbonyl]phenyl}-4-(3-methylphenyl)-3-hydroxy-4H-1,2,4-triazole]",10 to 1000
11,"CN(Cc1ccco1)C(=O)c1cc(-c2nnc(O)n2-c2ccccc2Cl)c(O)cc1O [Compound A58, 5-{2,4-Dihydroxy-5-[N-(furan-2-ylmethyl)-N-methylaminocarbonyl]phenyl}-4-(2-chlorophenyl)-3-hydroxy-4H-1,2,4-triazole]",10 to 1000
12,"CN(Cc1ccco1)C(=O)c1cc(-c2nnc(O)n2-c2cccc(Cl)c2)c(O)cc1O [Compound A58a, 5-{2,4-Dihydroxy-5-[N-(furan-2-ylmethyl)-N-methylaminocarbonyl]phenyl}-4-(3-chlorophenyl)-3-hydroxy-4H-1,2,4-triazole]",10 to 1000
13,"CN(Cc1ccco1)C(=O)c1cc(-c2nnc(O)n2-c2cc(Cl)cc(Cl)c2)c(O)cc1O [Compound A58b, 5-{2,4-Dihydroxy-5-[N-(furan-2-ylmethyl)-N-methylaminocarbonyl]phenyl}-4-(3,5-dichlorophenyl)-3-hydroxy-4H-1,2,4-triazole]",10 to 1000
14,"CN(Cc1ccco1)C(=O)c1cc(-c2nnc(O)n2-c2ccc(Cl)cc2)c(O)cc1O [Compound A58c, 5-{2,4-Dihydroxy-5-[N-(furan-2-ylmethyl)-N-methylaminocarbonyl]phenyl}-4-(4-chlorophenyl)-3-hydroxy-4H-1,2,4-triazole]",10 to 1000
15,"CN(Cc1ccco1)C(=O)c1cc(-c2nnc(O)n2-c2cccc(F)c2)c(O)cc1O [Compound A59a, 5-{2,4-Dihydroxy-5-[N-(furan-2-ylmethyl)-N-methylaminocarbonyl]phenyl}-4-(3-fluorophenyl)-3-hydroxy-4H-1,2,4-triazole]",10 to 1000
16,"CCc1cccc(-n2c(O)nnc2-c2cc(C(=O)N(C)Cc3ccco3)c(O)cc2O)c1 [Compound A59b, 5-{2,4-Dihydroxy-5-[N-(furan-2-ylmethyl)-N-methylaminocarbonyl]phenyl}-4-(3-ethylphenyl)-3-hydroxy-4H-1,2,4-triazole]",10 to 1000
17,"COc1cccc(-n2c(O)nnc2-c2cc(C(=O)N(C)Cc3ccco3)c(O)cc2O)c1 [Compound A62b, 5-{2,4-Dihydroxy-5-[N-(furan-2-ylmethyl)-N-methylaminocarbonyl]phenyl}-4-(3-methoxyphenyl)-3-hydroxy-4H-1,2,4-triazole]",10 to 1000
18,"CCc1ccccc1-n1c(O)nnc1-c1cc(C(=O)N(C)Cc2ccco2)c(O)cc1O [Compound A62c, 5-{2,4-Dihydroxy-5-[N-(furan-2-ylmethyl)-N-methylaminocarbonyl]phenyl}-4-(2-ethylphenyl)-3-hydroxy-4H-1,2,4-triazole]",10 to 1000
19,"COc1cc(O)c(-c2nnc(O)n2-c2ccccc2C)cc1C(=O)N(C)Cc1ccccc1 [Compound A116a, 5-[2-Hydroxy-4-methoxy-5-(N-benzyl-N-methylaminocarbonyl)phenyl]-4-(2-methylphenyl)-3-hydroxy-4H-1,2,4-triazole]",10 to 1000
20,"Cc1ccccc1-n1c(-c2cc(C(=O)N(C)Cc3cccc(OCCN4CCOCC4)c3)c(O)cc2O)n[nH]c1=O [Compound A116c, 2,4-Dihydroxy-N-methyl-N-[3-(2-morpholin-4-ylethoxy)benzyl]-5-(5-oxo-4-o-tolyl-4,5-dihydro-1H-1,2,4-triazol-3-yl)benzamide]",1000 to 10000
